Experimental data from US4939274A, “Hydroxybutenolide derivatives, production and use thereof” (Takeda Chemical Industries, Ltd., priority 1986, dated 1990).

Legend:
[1] = system: lipid peroxide formation in rat brain tissue homogenate; assay: Activity to inhibit lipid peroxide formation in rat brain tissue homogenate (TBA method); type: biochemical; conditions: 10^-5 M; 5% rat brain homogenate, 37° C., 1 hour; n=3, mean; vs. DMSO reference
Description: Male SD rats (12-week-old) were subjected to exsanguination under anesthesia with pentobarbital, then the brain was excised. The brain tissue was homogenized in a phosphate buffer (pH 7.4) to prepare a 5% homogenate. After incubation of the homogenate at 37° C. for 1 hour, the amount of lipid peroxides formed therein was determined by the thiobarbituric acid (TBA) method in accordance with the report of Ohkawa et al. on Analytical Biochemistry, 95, 351, (1979). The test drug was added to the 5% homogenate before incubation so as to make the final concentration be 10^-5 M The activity to inhibit the formation of lipid peroxide was compared with that of the reference group to which was added the solvent (DMSO), and shown by % inhibition.

mice = assay: Acute toxicity in mice; type: in vivo; conditions: oral, 300 and 1000 mg/kg
Description: Male Crj-ICR mice (4-week-old, 21 to 26 g) were used. The animals, divided into groups, each consisting of six mice, were administered orally with compounds (4-c, 4-h) at the dosages of 300 and 1000 mg/kg, respectively. Then, each group was housed in a cage and observed for 24 hours.
The test drugs were suspended in gum arabic and administered at a volume of 0.1 ml/10 g.

[2] = system: ventricular arrhythmia during coronary artery occlusion-reperfusion in rat hearts; assay: Activity to inhibit occurrence of ventricular arrhythmia during coronary artery occlusion-reperfusion in rat hearts; type: in vivo; conditions: 50 mg/kg, oral; for Ventricular fibrillation, Incidence (10 min.) / Ventricular tachycardia, Incidence (10 min.): 10 min. observation; for Ventricular fibrillation, Incidence (10 min.): control 4.1 ± 0.7; for Ventricular tachycardia, Incidence (10 min.): control 11.5 ± 5.0; for Ventricular tachycardia, Duration / Ventricular fibrillation, Duration: average ± SEM; for Ventricular tachycardia, Duration: control 26.5 ± 6.8; for Ventricular fibrillation, Duration: control 74.2 ± 30.8; for Exrasystole: control 11.0 ± 4.0; for Mortality: killed/tested animals, control 2/18
Source text: Male SD rats (9- to 13-week old, 250 to 370 g) were used. The animals were subjected to thoractonomy under artificial respiration while anesthesia was maintained by administering pentobarbital. […] By recording standard limb lead II electrocardiograms, occurrence of ventricular arrhythmia was examined.
Incidences of ventricular fibrillation and ventricular tachycardia are shown by the percentage of the number of animals presenting the symptoms relative to the number of animals subjected to the test, and the duration of the symptoms was shown in average ±SEM by seconds. Extrasystole is shown by the number of systole/min., and the mortality is shown by the percentage of the number of killed animals relative to the number of test animals.

Q: How did the “Inhibition rate (lipid peroxide formation)” value (from here on “Inhibition rate”) [1] turn out when CCCCCOc1ccc(C2=C(O)COC2=O)cc1 [Compound 4-a] was run?
A: 57.1%

Q: With CCCCCCCOc1ccc(C2=C(O)COC2=O)cc1 [Compound 4-b] as the compound, how does the “Inhibition rate” value [1] read?
A: 100.0%

Q: CCCCCCCCCCOc1ccc(C2=C(O)C(C)OC2=O)cc1 (stereo not shown) [Compound 4-d] was tested. Which “Inhibition rate” value [1] did it give?
A: 100.0%

Q: With CCCCCCCCCCOc1ccc(C2=C(O)C(c3ccccc3)OC2=O)cc1 (stereo not shown) [Compound 4-e] as the compound, how does the “Inhibition rate” value [1] read?
A: 100.0%

Q: With CCCCCCCCCCCOc1ccc(C2=C(O)COC2=O)cc1 [Compound 4-f] as the compound, how does the “Inhibition rate” value [1] read?
A: 89.7%

Q: How did the “Inhibition rate” value [1] turn out when CCCCCCCCCCCOc1ccc(C2=C(O)C(c3ccccc3)OC2=O)cc1 (stereo not shown) [Compound 4-g, 2-(4-undecyloxyphenyl)-3-hydroxy-4-phenyl-2-buten-4-olide] was run?
A: 100.0%

Q: What does the source list for CCCCCCCCCCCCOc1ccc(C2=C(O)COC2=O)cc1 [Compound 4-h, 2-(4-dodecyloxyphenyl)-3-hydroxy-2-buten-4-olide]?
A: recovery from sedation and ptosis (mice): ≤ 3 h; state of sedation and ptosis, animals affected (mice; six mice per group): half number of the test animals; Inhibition rate (lipid peroxide formation) [1]: 100.0%

Q: Which “Inhibition rate” value [1] does the source give for CCCCCCCCCCCCOc1ccc(C2=C(O)C(C)OC2=O)cc1 (stereo not shown) [Compound 4-i] here?
A: 100.0%

Q: How did the “Inhibition rate” value [1] turn out when CCCCCCCCCCCCCCOc1ccc(C2=C(O)COC2=O)cc1 [Compound 4-j] was run?
A: 100.0%

Q: For CCCCCCCCCCCCCCCCCCOc1ccc(C2=C(O)COC2=O)cc1 [Compound 4-k], which “Inhibition rate” value [1] is on record?
A: 80.1%

Q: How did the “effect on ventricular arrhythmia” value [2] turn out when O=C1O[C@H]([C@@H](O)CO)C(O)=C1O [Vitamin C, ascorbic acid] was run?
A: no significant effect

Q: And the “Ventricular fibrillation, Incidence (10 min.)” value [2]?
A: 5.4 ± 0.8

Q: What about the “Ventricular tachycardia, Incidence (10 min.)” value [2] of the same compound?
A: 9.5 ± 1.8

Q: And the “Ventricular tachycardia, Duration” value [2]?
A: 12.0 ± 2.9 s

Q: What about the “Ventricular fibrillation, Duration” value [2] of the same compound?
A: 74.1 ± 36.0 s

Q: And the Exrasystole [2]?
A: 11.0 ± 0.8 times/min.

Q: What about the Mortality [2] of the same compound?
A: 1/12

Q: What about the “Inhibition rate” value [1] of the same compound?
A: -71.6%

Q: With Cc1c(C)c2c(c(C)c1O)CC[C@@](C)(CCC[C@H](C)CCC[C@H](C)CCCC(C)C)O2 [Vitamin E, α-tocopherol] as the compound, how does the “effect on ventricular arrhythmia” value [2] read?
A: no significant effect

Q: And the “Ventricular fibrillation, Incidence (10 min.)” value [2]?
A: 2.0 ± 0.7

Q: And the “Ventricular tachycardia, Incidence (10 min.)” value [2]?
A: 3.7 ± 1.5

Q: And the “Ventricular tachycardia, Duration” value [2]?
A: 22.3 ± 9.7 s

Q: And the “Ventricular fibrillation, Duration” value [2]?
A: 43.4 ± 36.0 s

Q: What about the Exrasystole [2] of the same compound?
A: 7.0 ± 4.1 times/min.

Q: What about the Mortality [2] of the same compound?
A: 1/10

Q: And the “Inhibition rate” value [1]?
A: 44.9%
